For one test, the target named is T1, DLK (Homo sapiens, UniProt Q12852).
T1 construct: 10 nM DLK, catalytic domain, Carna Biosiences; purchased Carna Biosciences ('Carna Biosiences' [sic])
T1 sequence (Q12852 125-366 limits assumed): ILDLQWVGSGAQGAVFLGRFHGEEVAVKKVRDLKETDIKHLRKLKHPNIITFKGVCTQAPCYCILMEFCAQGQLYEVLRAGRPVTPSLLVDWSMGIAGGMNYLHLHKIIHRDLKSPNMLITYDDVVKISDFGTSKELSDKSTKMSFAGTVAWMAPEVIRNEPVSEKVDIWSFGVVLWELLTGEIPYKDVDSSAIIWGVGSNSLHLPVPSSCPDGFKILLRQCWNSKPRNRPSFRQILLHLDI
As to the kind of experiment: DLK biochemical assay (TR-FRET, MKK7 phosphorylation). In a few lines:
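TR-FRET read-out (665/Eu ratio) of MKK7 T275/S277 phosphorylation, with inhibition lowering the signal. Final conditions: 10 nM DLK catalytic domain, 15 nM MKK7, 60 μM ATP, 90 min at RT. Detection incubation 16 h at 37° C in 1536-well or 4° C in 384-well format.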
For orientation: In TR-FRET formats the signal depends on donor and acceptor labels being close together.

A further test has as its target T2, LZK (Homo sapiens, UniProt O43283).
T2 construct: 10 nM LZK, catalytic domain, Carna Biosiences in assay buffer; purchased Carna Biosciences ('Carna Biosiences' [sic])
T2 sequence (O43283 168-409 limits assumed): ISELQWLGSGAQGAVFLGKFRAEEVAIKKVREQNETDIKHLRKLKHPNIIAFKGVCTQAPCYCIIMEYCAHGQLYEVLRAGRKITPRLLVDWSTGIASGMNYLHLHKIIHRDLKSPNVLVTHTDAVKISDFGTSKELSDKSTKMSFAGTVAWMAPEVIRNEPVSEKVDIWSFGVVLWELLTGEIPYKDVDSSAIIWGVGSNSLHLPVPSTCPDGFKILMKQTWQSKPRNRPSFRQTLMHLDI
As to the kind of experiment: LZK biochemical assay (TR-FRET, MKK7 phosphorylation). The method in brief:
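Read-out is HTRF: Eu-labelled anti-phospho-MKK7 (T275/S277) and XL665 anti-His, incubated 16 h at 32 °C, with a drop in signal marking inhibition. Reaction beforehand: 10 nM LZK kinase domain, 15 nM His-MKK7, 15 µM ATP (final) for 90 min at room temperature, pH 7.5.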

By IC50 is commonly meant the concentration needed to halve the response being measured. Take `CCC(c1ccc(C(F)(F)F)nc1)n1cc(-c2cc(-c3ccnc(C4(F)CC4)c3)n3nc(N)nc3c2)cn1` (single isomer, unassigned) [II-33, 5-[2-(1-Fluorocyclopropyl)pyridin-4-yl]-7-(1-{1-[6-(trifluoromethyl)pyridin-3-yl]propyl}-1H-pyrazol-4-yl)[1,2,4]triazolo[1,5-a]pyridin-2-amine]: the IC50 is 0.017 µM against DLK and 0.0076 µM against LZK.
As for `Nc1nc2cc(-c3cnn(C(c4ccc(C(F)(F)F)nc4)C4CCOCC4)c3)cc(-c3ccnc(C(F)(F)F)c3)n2n1` (single isomer, unassigned) [II-35, 7-(1-{Tetrahydro-2H-pyran-4-yl[6-(trifluoromethyl)pyridin-3-yl]methyl}-1H-pyrazol-4-yl)-5-[2-(trifluoromethyl)pyridin-4-yl][1,2,4]triazolo[1,5-a]pyridin-2-amine], the figures for the IC50 against DLK and at LZK were 0.063 µM and 0.044 µM, respectively.
Regarding `Nc1nc2cc(-c3cnn(C(c4ccc(C(F)(F)F)nc4)C4CCOCC4)c3)cc(-c3ccnc(C(F)(F)F)c3)n2n1` (single isomer, unassigned) [II-36, 7-(1-{Tetrahydro-2H-pyran-4-yl[6-(trifluoromethyl)pyridin-3-yl]methyl}-1H-pyrazol-4-yl)-5-[2-(trifluoromethyl)pyridin-4-yl][1,2,4]triazolo[1,5-a]pyridin-2-amine], the IC50 against DLK was determined as 0.0063 µM; against LZK, 0.0079 µM.
For `CCC(c1ccc(C(F)(F)F)nc1)n1cc(-c2cc(-c3ccc(C(F)(F)F)nc3)c3nc(N)nn3c2)cn1` (single isomer, unassigned) [II-38, 8-[6-(Trifluoromethyl)pyridin-3-yl]-6-(1-{1-[6-(trifluoromethyl)pyridin-3-yl]propyl}-1H-pyrazol-4-yl)[1,2,4]triazolo[1,5-a]pyridin-2-amine], in that order: 0.056 µM and 0.12 µM.
For `CCC(c1ccc(C(F)(F)F)nc1)n1cc(-c2cc(-c3ccc(C(F)(F)F)nc3)c3nc(N)nn3c2)cn1` (single isomer, unassigned) [II-39, 8-[6-(Trifluoromethyl)pyridin-3-yl]-6-(1-{1-[6-(trifluoromethyl)pyridin-3-yl]propyl}-1H-pyrazol-4-yl)[1,2,4]triazolo[1,5-a]pyridin-2-amine], the values for the IC50 against DLK and at LZK were 0.024 µM and 0.052 µM, respectively.
The corresponding values for `CC(C)C(c1ccc(C(F)(F)F)nc1)n1cc(-c2cc(-c3ccc(C(F)(F)F)nc3)c3nc(N)nn3c2)cn1` (single isomer, unassigned) [II-41, 6-(1-{2-Methyl-1-[6-(trifluoromethyl)pyridin-3-yl]propyl}-1H-pyrazol-4-yl)-8-[6-(trifluoromethyl)pyridin-3-yl][1,2,4]triazolo[1,5-a]pyridin-2-amine] are 0.38 µM and 0.77 µM.
`CC(C)C(c1ccc(C(F)(F)F)nc1)n1cc(-c2cc(-c3ccc(C(F)(F)F)nc3)c3nc(N)nn3c2)cn1` (single isomer, unassigned) [II-42, 6-(1-{2-Methyl-1-[6-(trifluoromethyl)pyridin-3-yl]propyl}-1H-pyrazol-4-yl)-8-[6-(trifluoromethyl)pyridin-3-yl][1,2,4]triazolo[1,5-a]pyridin-2-amine]: the IC50 on DLK came out at 0.018 µM; on LZK, 0.052 µM.
In the case of `CC(C)C(c1ccc(C(F)(F)F)nc1)n1cc(-c2cc(-c3ccc(C4CC4)nc3)c3nc(N)nn3c2)cn1` (single isomer, unassigned) [II-44], the values for the IC50 on DLK and against LZK were 0.06 µM and 0.1 µM, respectively.
Regarding `CC(C)C(c1ccc(C(F)(F)F)nc1)n1cc(-c2cc(-c3ccc(C4CC4)nc3)c3nc(N)nn3c2)cn1` (single isomer, unassigned) [II-45, 8-(6-Cyclopropylpyridin-3-yl)-6-(1-{2-methyl-1-[6-(trifluoromethyl)pyridin-3-yl]propyl}-1H-pyrazol-4-yl)[1,2,4]triazolo[1,5-a]pyridin-2-amine], the IC50 at DLK stood at 0.0095 µM; on LZK, 0.01 µM.
Consider `CC(C)C(c1ccc(C(F)F)nc1)n1cc(-c2cc(-c3ccc(OC(F)F)nc3)n3nc(N)nc3c2)cn1` (single isomer, unassigned) [II-50, 5-[6-(Difluoromethoxy)pyridin-3-yl]-7-(1-{1-[6-(difluoromethyl)pyridin-3-yl]-2-methylpropyl}-1H-pyrazol-4-yl)[1,2,4]triazolo[1,5-a]pyridin-2-amine], for which the results for the IC50 at DLK and on LZK were 0.28 µM and 0.27 µM, respectively.
For `CC(C)C(c1ccc(C(F)F)nc1)n1cc(-c2cc(-c3ccc(OC(F)F)nc3)n3nc(N)nc3c2)cn1` (single isomer, unassigned) [II-51, 5-[6-(Difluoromethoxy)pyridin-3-yl]-7-(1-{1-[6-(difluoromethyl)pyridin-3-yl]-2-methylpropyl}-1H-pyrazol-4-yl)[1,2,4]triazolo[1,5-a]pyridin-2-amine], in that order: 0.013 µM and 0.025 µM.
For `CC(C)C(c1ccc(C(F)F)nc1)n1cc(-c2cc(-c3ccc(C4CC4)nc3)n3nc(N)nc3c2)cn1` (single isomer, unassigned) [II-53, 5-(6-Cyclopropylpyridin-3-yl)-7-(1-{1-[6-(difluoromethyl)pyridin-3-yl]-2-methylpropyl}-1H-pyrazol-4-yl)[1,2,4]triazolo[1,5-a]pyridin-2-amine], in that order: 0.033 µM and 0.048 µM.
As for `CC(C)C(c1ccc(C(F)F)nc1)n1cc(-c2cc(-c3ccc(C4CC4)nc3)n3nc(N)nc3c2)cn1` (single isomer, unassigned) [II-54, 5-(6-Cyclopropylpyridin-3-yl)-7-(1-{1-[6-(difluoromethyl)pyridin-3-yl]-2-methylpropyl}-1H-pyrazol-4-yl)[1,2,4]triazolo[1,5-a]pyridin-2-amine], the IC50 at DLK is 0.004 µM; on LZK, 0.0089 µM.
The corresponding values for `CCC(c1ccc(C(F)(F)F)nc1)n1cc(-c2cc(-c3ccc(C4CC4)nc3)n3nc(N)nc3c2)cn1` (single isomer, unassigned) [II-56, 5-(6-Cyclopropylpyridin-3-yl)-7-(1-{1-[6-(trifluoromethyl)pyridin-3-yl]propyl}-1H-pyrazol-4-yl)[1,2,4]triazolo[1,5-a]pyridin-2-amine] are 0.037 µM and 0.056 µM.
In the case of `CCC(c1ccc(C(F)(F)F)nc1)n1cc(-c2cc(-c3ccc(C4CC4)nc3)n3nc(N)nc3c2)cn1` (single isomer, unassigned) [II-57, 5-(6-Cyclopropylpyridin-3-yl)-7-(1-{1-[6-(trifluoromethyl)pyridin-3-yl]propyl}-1H-pyrazol-4-yl)[1,2,4]triazolo[1,5-a]pyridin-2-amine], the figures for the IC50 against DLK and at LZK were 0.018 µM and 0.014 µM, respectively.
For the molecule `CC(C)C(c1ccc(C(F)(F)F)nc1)n1cc(-c2cc(-c3ccc(C4CC4)nc3)n3nc(N)nc3c2)cn1` (single isomer, unassigned) [II-59, 5-(6-Cyclopropylpyridin-3-yl)-7-(1-{2-methyl-1-[6-(trifluoromethyl)pyridin-3-yl]propyl}-1H-pyrazol-4-yl)[1,2,4]triazolo[1,5-a]pyridin-2-amine], the values for the IC50 against DLK and against LZK were 0.092 µM and 0.19 µM, respectively.
For `CC(C)C(c1ccc(C(F)(F)F)nc1)n1cc(-c2cc(-c3ccc(C4CC4)nc3)n3nc(N)nc3c2)cn1` (single isomer, unassigned) [II-60, 5-(6-Cyclopropylpyridin-3-yl)-7-(1-{2-methyl-1-[6-(trifluoromethyl)pyridin-3-yl]propyl}-1H-pyrazol-4-yl)[1,2,4]triazolo[1,5-a]pyridin-2-amine], in that order: 0.011 µM and 0.0079 µM.
The corresponding values for `CCC(c1ccc(C(F)F)nc1)n1cc(-c2cc(-c3ccc(C(F)(F)F)nc3)n3nc(N)nc3c2)cn1` (single isomer, unassigned) [II-62, 7-(1-{1-[6-(Difluoromethyl)pyridin-3-yl]propyl}-1H-pyrazol-4-yl)-5-[6-(trifluoromethyl)pyridin-3-yl][1,2,4]triazolo[1,5-a]pyridin-2-amine] are 0.44 µM and 0.22 µM.
As for `CCC(c1ccc(C(F)F)nc1)n1cc(-c2cc(-c3ccc(C(F)(F)F)nc3)n3nc(N)nc3c2)cn1` (single isomer, unassigned) [II-63, 7-(1-{1-[6-(Difluoromethyl)pyridin-3-yl]propyl}-1H-pyrazol-4-yl)-5-[6-(trifluoromethyl)pyridin-3-yl][1,2,4]triazolo[1,5-a]pyridin-2-amine], the IC50 came to 0.097 µM at DLK and 0.051 µM on LZK.

The record behind these values is patent publication US20230086702A1, “SUBSTITUTED 2-AMINO-PYRAZOLYL-[1,2,4]TRIAZOLO[1,5A]PYRIDINE DERIVATIVES AND USE THEREOF” (The Johns Hopkins University, priority 2019, published 2023).
